Series [1] has as its system Cancer cells including pancreatic, bladder, kidney, colon, breast, lung, liver and osteosarcomas. The series can be described thus: CellTiter Glo cell viability assay, panel of cancer cell lines. The following applies: SAR discussion based on IC50 values in Tables 1 to 5; compared with 1 [KYN-001]. The class given is cell-based, human. The procedure: Compounds 1 to 15 were evaluated and their effect on cancer growth examined in cell viability assays on multiple cancer types (Tables 1 to 5). Cancer cells including pancreatic, bladder, kidney, colon, breast, lung, liver and osteosarcomas obtained from ATCC (American Type Culture Collection) were authenticated before use by Short Tandem Repeat genomic analysis (Reid Y, Storts D, Riss T and Minor L. Authentication of Human Cell Lines by STR DNA Profiling Analysis. 2013 May 1. In: Markossian S, Sittampalam G S, Grossman A, et al., editors. Assay Guidance Manual. Bethesda (MD): Eli Lilly & Company and the National Center for Advancing Translational Sciences; 2004.). Experimental protocol for each cancer cell line was verified and optimized according to literature reports before use (Tables 1 to 3).
1.7*10^3 cells/well were seeded in quadruplicates in 96-well plate after plating. Drugs were added at 5 μM and 2-fold dilutions over 18 concentrations (0.000038146-5 […] range) to generate a dose-response curve. Cell growth was assessed on day 1, 3 and 5 after drug treatments using the CellTiter Glo Luminescence Cell Viability Assay (Promega) according to manufacturer's protocol. Thermo Scientific Varioskan LUX Multimode Microplate instrument was used for plate reading. Data are expressed as mean luminescence (arbitrary units) ±S.D.
Cell Viability Assays were employed to determine the concentration of Compound 1 (KYN-001) and analogues where the response is reduced by half. For each treatment of cancer cells, 1, 2, 5, 10 and 20 μM solutions of compounds were applied. GraphPad Prism 7 software was used to fit dose response curves. Relative Luminescence Units were plotted against the log values of the doses used and the nonlinear regression model was used for data analysis.
The protocol for cell proliferation was optimized for Compound 8 (KYN-119) to enable a more accurate assessment of its low IC50 value. In this protocol, 18 dosages (2 fold dilutions ranging from 0.000038146 to 5 μM) were applied to cells seeded in 96-well plates, and Luminescence was measured after 1, 3 and 5 days upon treatments.

Series [2] can be described thus: Stability in solution (LCMS observation). It counts as physicochemical. The following applies: standing in methanol for 16 hours; acetonitrile in water chromatography. The method, then: NOTE: In a trial run, compound 15-9 (50 mg) was converted to compound 15 using conditions as described above.
Another series concerns Kidney A-498. The series can be described thus: CellTiter Glo cell viability assay. To be noted: Homo sapiens, A498, Table 5A: 11 dilutions 3-0.00001 μM; single experiments Exp E-K; read-out: IC50. It counts as cell-based, human. A digest of the protocol:
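A498 human kidney cancer cells were seeded in 96-well plates in quadruplicate at 1.7*10^3 cells/well and exposed to serial dilutions of test compound. Viability was read with the Promega CellTiter Glo Luminescence assay on a Thermo Scientific Varioskan LUX plate reader. The half-maximal inhibitory concentration was obtained by nonlinear regression in GraphPad Prism 7.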

A further series relates to Pancreatic MIA PaCa-2. As to the kind of experiment: CellTiter Glo cell viability assay. It counts as cell-based, human. To be noted: Homo sapiens, read-out: IC50. In short, it runs like this:
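MIA PaCa-2 human pancreatic cancer cells were plated in 96-well plates, 1.7*10^3 cells/well in quadruplicate, and compounds were added as serial dilutions to build dose-response curves. Viability was read by CellTiter Glo Luminescence (Promega) on a Varioskan LUX reader. Relative luminescence was plotted against log dose, and IC50 was obtained by nonlinear regression in GraphPad Prism 7.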

The subject of the next series is Brain U-87 MG HTB-14. The series can be described thus: CellTiter Glo cell viability assay. The class given is cell-based. To be noted: Homo sapiens, Table 5B: 11 dilutions 3-0.00001 μM, Exp L-N. The procedure:
1.7*10^3 cells/well were seeded in quadruplicates in 96-well plate after plating. […] Cell growth was assessed on day 1, 3 and 5 after drug treatments using the CellTiter Glo Luminescence Cell Viability Assay (Promega) according to manufacturer's protocol. Thermo Scientific Varioskan LUX Multimode Microplate instrument was used for plate reading. Data are expressed as mean luminescence (arbitrary units) ±S.D.
Cell Viability Assays were employed to determine the concentration of Compound 1 (KYN-001) and analogues where the response is reduced by half. […] GraphPad Prism 7 software was used to fit dose response curves. Relative Luminescence Units were plotted against the log values of the doses used and the nonlinear regression model was used for data analysis.
On the technique in general: In ATP-based viability assays light output follows the ATP content of the culture.

Another series deals with GBM patient sample BNA99. As to the kind of experiment: Ex vivo GBM 3D spheroid drug response (CellTiter-Glo 3D). To be noted: 3D spheroids. It counts as cell-based, human. Also noted: key to TMZ Response: NR: Non-responder; MR: Moderate responder; Responder. The text has this:
(§1) This project involves an ex vivo drug response screen for 3 ROKiT Pharma test agents and Temozolomide in 3 previously dissociated and cryopreserved GBM samples.
(§2) • 2.1 Three previously processed GBM patient samples were chosen to be used in this study.

In another series the test system is GBM patient sample BNB04. The series is described as above. It counts as cell-based, human. Also on record: key to TMZ Response: NR: Non-responder; MR: Moderate responder; Responder. To be noted: 3D spheroids.
Excerpt: as §1, §2

The next series concerns GBM patient sample BNB18. The series is described as above. The class given is cell-based, human. Also on record: key to TMZ Response: NR: Non-responder; MR: Moderate responder; Responder. The following applies: 3D spheroids.
Excerpt: as §1, §2

The test system of series [3] is IL-17A secretion from human PBMC stimulated with antiCD3/antiCD28-coated beads. To be noted: assay description, cited from earlier work.
Setting [4] is: MIA PaCa-2, Table 5B: MIA PaCa-2 CRL-1420, 11 dilutions 3-0.00001 μM, Exp L-N.

Molecules are shown by their SMILES. Like-named read-outs stand apart in the source and are kept apart here.

What is called IC50 is the concentration at which inhibition is half-maximal. In general, EC50 refers to the concentration at which the effect is half-maximal.

For the molecule `CNc1cc(/C=C/c2cc(O)cc(OC)c2CC=C(C)C)ccc1O` [Compound 15, (E)-3-(4-Hydroxy-3-(methylamino)styryl)-5-methoxy-4-(3-methylbut-2-en-1-yl)phenol], the “Cancer cell viability inhibition, statement in words” value (“Cancer cell viability inhibition” below) in series [1] is “inactive or weakly active”. Further, the Stability in solution result in series [2] is “might be unstable in solution”. Also, the IC50 with Kidney A-498 was > 3 µM; in the series on Pancreatic MIA PaCa-2 (MIA PaCa-2, Table 5A: 11 dilutions 3-0.00001 μM, single experiments Exp E-K) it was > 3 µM.

As to `CCOc1cc(O)cc(/C=C/c2ccc(N(O)C(C)=O)c(OC)c2)c1CC=C(C)C` [Compound 39, (E)-N-(4-(3-ethoxy-5-hydroxy-2-(3-methylbut-2-en-1-yl)styryl)-2-methoxyphenyl)-N-hydroxyacetamide], the “Cancer cell viability inhibition” value in [1] was “almost complete loss of anticancer activity”. Besides, the concentration for half-maximal inhibition (IC50) with Pancreatic MIA PaCa-2 (setting [4]) is > 3 µM; with Brain U-87 MG HTB-14 it was ~3 µM.

`COc1cc(/C=C/c2cc(O)cc(NC=O)c2CC=C(C)C)ccc1O` [Compound 48, (E)-N-(5-Hydroxy-3-(4-hydroxy-3-methoxystyryl)-2-(3-methylbut-2-en-1-yl)phenyl)formamide]: the “Cancer cell viability inhibition” value in series [1] is “anticancer activities comparable to 1”. Moreover, the IC50 was 0.486 µM with Pancreatic MIA PaCa-2 (setting [4]) and 0.555 µM with Brain U-87 MG HTB-14.

For `COc1cc(/C=C/c2cc(O)cc(NC(C)=O)c2CC=C(C)C)ccc1O` [Compound 49, (E)-N-(5-hydroxy-3-(4-hydroxy-3-methoxystyryl)-2-(3-methylbut-2-en-1-yl)phenyl)acetamide], in [1], the “Cancer cell viability inhibition” value was “anticancer activities comparable to 1”. Besides, the IC50 was determined as 0.531 µM with Pancreatic MIA PaCa-2 (setting [4]) and 1.41 µM in the series on Brain U-87 MG HTB-14.

On to `CCOc1cc(O)cc(/C=C/c2ccc3[nH]c(=O)n(C)c3c2)c1CC=C(C)C` [Compound 51, (E)-6-(3-Ethoxy-5-hydroxy-2-(3-methylbut-2-en-1-yl)styryl)-1-methyl-1,3-dihydro-2H-benzo[d]imidazol-2-one], for which the “Cancer cell viability inhibition” value in series [1] was “no significant activity”. In the series with Brain U-87 MG HTB-14, the IC50 was ~3 µM.

For `Cn1nnc2c(C(N)=O)ncn2c1=O` [TMZ, Temozolomide, reference compound], the “TMZ Response” value in the series on GBM patient sample BNA99 is given as “NR”; in the series with GBM patient sample BNB04, “MR”; in the series on GBM patient sample BNB18, “R”.

For `C=CC[C@@H]1/C=C(\C)C[C@H](C)C[C@H](OC)[C@H]2O[C@@](O)(C(=O)C(=O)N3CCCC[C@H]3C(=O)O[C@H](/C(C)=C/[C@@H]3CC[C@@H](O)[C@H](OC)C3)[C@H](C)[C@@H](O)CC1=O)[C@H](C)C[C@@H]2OC` [Tacrolimus], the “Emax (plateau of the fitted curve), IL-17A release (reference compound)” value in series [3] is listed as “approximately 90%”. In addition, the EC50 in series [3] (read-out: EC50, IL-17A release (reference compound)) was ~0.00034 µM.

Source of the values: patent publication US20260209152A1, “Substituted Hydroxystilbene Compounds and Derivatives, Synthesis and Uses Thereof” (Kynan Duke IP, LLC, priority 2019, published 2026).
